Drawing on patent US20250213555A1, “SUBSTITUTED TETRAHYDROFURAN ANALOGS AS MODULATORS OF SODIUM CHANNELS” (VERTEX PHARMACEUTICALS INCORPORATED, priority 2021, published 2025), this text covers IC50 for five compounds.

Structures are written as SMILES.

By IC50 is commonly meant the point on the concentration scale where inhibition reaches its midpoint.

Sequence of human Nav 1.8 (Q9Y5Y9 126-399 limits assumed): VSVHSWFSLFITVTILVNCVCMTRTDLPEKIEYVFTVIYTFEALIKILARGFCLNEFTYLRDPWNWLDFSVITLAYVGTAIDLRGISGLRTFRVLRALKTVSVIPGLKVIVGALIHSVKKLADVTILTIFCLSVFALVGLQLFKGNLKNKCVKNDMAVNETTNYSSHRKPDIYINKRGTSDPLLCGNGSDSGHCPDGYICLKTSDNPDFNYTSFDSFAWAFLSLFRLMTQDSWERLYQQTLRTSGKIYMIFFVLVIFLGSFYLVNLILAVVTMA
Sequence of human Nav 1.8 (Q9Y5Y9 660-890 limits assumed): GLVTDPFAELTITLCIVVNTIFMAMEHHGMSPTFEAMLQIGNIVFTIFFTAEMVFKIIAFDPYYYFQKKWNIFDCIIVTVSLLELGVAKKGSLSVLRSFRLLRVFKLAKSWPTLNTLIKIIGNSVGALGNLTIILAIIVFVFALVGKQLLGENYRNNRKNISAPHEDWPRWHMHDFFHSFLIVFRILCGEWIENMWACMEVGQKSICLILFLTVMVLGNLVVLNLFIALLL
Sequence of human Nav 1.8 (Q9Y5Y9 1148-1722 limits assumed): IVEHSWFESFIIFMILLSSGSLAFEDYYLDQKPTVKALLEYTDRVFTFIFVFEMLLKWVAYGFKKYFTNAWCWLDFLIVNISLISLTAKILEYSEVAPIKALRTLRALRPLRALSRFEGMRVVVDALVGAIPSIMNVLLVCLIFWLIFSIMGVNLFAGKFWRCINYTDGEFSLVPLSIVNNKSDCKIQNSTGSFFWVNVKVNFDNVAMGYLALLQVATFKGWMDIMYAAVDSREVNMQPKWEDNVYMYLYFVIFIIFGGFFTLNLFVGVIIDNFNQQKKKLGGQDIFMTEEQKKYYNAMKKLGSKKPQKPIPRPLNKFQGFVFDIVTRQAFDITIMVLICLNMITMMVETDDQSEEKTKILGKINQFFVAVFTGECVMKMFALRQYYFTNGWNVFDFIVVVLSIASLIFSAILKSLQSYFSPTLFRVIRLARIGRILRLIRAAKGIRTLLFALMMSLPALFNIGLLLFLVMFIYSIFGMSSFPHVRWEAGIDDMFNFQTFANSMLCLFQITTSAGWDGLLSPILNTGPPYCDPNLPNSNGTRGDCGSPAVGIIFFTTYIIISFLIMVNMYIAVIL

This assay addresses human Nav 1.8 (Homo sapiens, UniProt Q9Y5Y9). Briefly: E-VIPR assay detecting and measuring Nav inhibition properties. Type of assay: cell-based. Particulars: HEK cells expressing a truncated form of human Nav 1.8; compound numbers without "*" (not marked as run in the presence of human serum); read-out: measured IC50 value in the E-VIPR Assay. A digest of the protocol: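 Nav inhibition was read by E-VIPR: cells were electrically stimulated while coumarin/oxonol FRET emissions were recorded. Cells were HEK expressing a truncated human Nav 1.8 and co-transduced with KIR2.1, and were assayed in 25% final human serum.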
On to `COc1c([C@H]2[C@H](C(=O)Nc3ccnc(C(=O)N4C[C@@H](OC)[C@@H](N(C)C)C4)c3)O[C@@](C)(C(F)(F)F)[C@H]2C)ccc(F)c1F` [Compound 298, (2R,3S,4S,5R)-3-(3,4-difluoro-2-methoxyphenyl)-N-(2-((3S,4R)-3-(dimethylamino)-4-methoxypyrrolidine-1-carbonyl)pyridin-4-yl)-4,5-dimethyl-5-(trifluoromethyl)tetrahydrofuran-2-carboxamide], for which the concentration for half-maximal inhibition (IC50) is < 10 nM.

For `COc1c([C@H]2[C@H](C(=O)Nc3ccnc(C(=O)N4C[C@@H](F)[C@H](N(C)C)C4)c3)O[C@@](C)(C(F)(F)F)[C@H]2C)ccc(F)c1F` [Compound 299, (2R,3S,4S,5R)-3-(3,4-difluoro-2-methoxyphenyl)-N-(2-((3R,4R)-3-(dimethylamino)-4-fluoropyrrolidine-1-carbonyl)pyridin-4-yl)-4,5-dimethyl-5-(trifluoromethyl)tetrahydrofuran-2-carboxamide], the IC50 fell in the range of 10 to 100 nM.

In the case of `COc1c([C@H]2[C@H](C(=O)Nc3ccnc(C(=O)N4C[C@@H](N(C)C)[C@@H](F)C4)c3)O[C@@](C)(C(F)(F)F)[C@H]2C)ccc(F)c1F` [Compound 300, (2R,3S,4S,5R)-3-(3,4-difluoro-2-methoxyphenyl)-N-(2-((3R,4S)-3-(dimethylamino)-4-fluoropyrrolidine-1-carbonyl)pyridin-4-yl)-4,5-dimethyl-5-(trifluoromethyl)tetrahydrofuran-2-carboxamide], the IC50 lay within 10 to 100 nM.

With `COc1c([C@H]2[C@H](C(=O)Nc3ccnc(C(=O)N4C[C@H](F)[C@@H](N(C)C)C4)c3)O[C@@](C)(C(F)(F)F)[C@H]2C)ccc(F)c1F` [Compound 301, (2R,3S,4S,5R)-3-(3,4-difluoro-2-methoxyphenyl)-N-(2-((3S,4S)-3-(dimethylamino)-4-fluoropyrrolidine-1-carbonyl)pyridin-4-yl)-4,5-dimethyl-5-(trifluoromethyl)tetrahydrofuran-2-carboxamide], the 50% inhibitory concentration (IC50) fell in the range of 10 to 100 nM.

Take `COc1c([C@H]2[C@H](C(=O)Nc3ccnc(C(=O)N4C[C@H](OC)[C@H](N(C)C)C4)c3)O[C@@](C)(C(F)(F)F)[C@H]2C)ccc(F)c1F` [Compound 302, (2R,3S,4S,5R)-3-(3,4-difluoro-2-methoxyphenyl)-N-(2-((3R,4S)-3-(dimethylamino)-4-methoxypyrrolidine-1-carbonyl)pyridin-4-yl)-4,5-dimethyl-5-(trifluoromethyl)tetrahydrofuran-2-carboxamide]: the IC50 is < 10 nM.
